Results from patent US6878522B2, “Methods for the identification of compounds useful for the treatment of disease states mediated by prostaglandin D2” (priority 2000, dated 2005).

What was measured:
[1] = inhaled, asthmatics; cited from earlier work
CRTH2 = biological target: T1, CRTH2 (Homo sapiens, UniProt Q9Y5Y4); assay: [3H]-PGD2 binding to 300-19 cells transfected with CRTH2
T1 construct: prolactin (prolac) signal peptide (N); expressed in transfected cells; host or cells: 300-19 cells (transformed murine pre-B lymphocytes)
T1 sequence (Q9Y5Y4 1-395): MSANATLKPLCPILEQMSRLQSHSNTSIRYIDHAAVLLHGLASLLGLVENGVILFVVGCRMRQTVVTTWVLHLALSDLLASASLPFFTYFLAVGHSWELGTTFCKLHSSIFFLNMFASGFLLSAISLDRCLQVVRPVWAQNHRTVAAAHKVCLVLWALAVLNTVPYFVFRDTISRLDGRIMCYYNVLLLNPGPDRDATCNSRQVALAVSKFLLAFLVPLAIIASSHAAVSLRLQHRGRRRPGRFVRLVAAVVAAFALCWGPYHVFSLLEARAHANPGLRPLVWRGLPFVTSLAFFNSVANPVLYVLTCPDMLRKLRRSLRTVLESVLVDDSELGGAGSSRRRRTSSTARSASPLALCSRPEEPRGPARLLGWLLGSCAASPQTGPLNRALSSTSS
Protocol: In a preferred embodiment, a binding assay can be performed as follows: • (a) 300-19 cells (see below) that transiently express CRTH2 are pelleted, and washed twice at room temperature with assay buffer (Hank's balanced saline, including Ca^+2 and Mg^+2, and supplemented with HEPES and sodium bicarbonate). The cells are resuspended at a concentration of 2×10^7 cells/ml. […] After the addition of 50 μl scintillation fluid, the plate is counted in a scintillation counter (1 min per well). […]
To directly determine the binding affinity of CRTH2 for PGD2, the following binding assay was used. […] After the addition of 50 μl scintillation fluid (Packard Microscint 0), the plate was counted in a Packard Topcount scintillation counter (1 min per well). […]
The receptor concentration was calculated to be 79,554 sites/cell.

TP receptor = biological target: T2, TP receptor (Homo sapiens, UniProt P21731); details: cited from earlier work
T2 sequence (P21731 1-343): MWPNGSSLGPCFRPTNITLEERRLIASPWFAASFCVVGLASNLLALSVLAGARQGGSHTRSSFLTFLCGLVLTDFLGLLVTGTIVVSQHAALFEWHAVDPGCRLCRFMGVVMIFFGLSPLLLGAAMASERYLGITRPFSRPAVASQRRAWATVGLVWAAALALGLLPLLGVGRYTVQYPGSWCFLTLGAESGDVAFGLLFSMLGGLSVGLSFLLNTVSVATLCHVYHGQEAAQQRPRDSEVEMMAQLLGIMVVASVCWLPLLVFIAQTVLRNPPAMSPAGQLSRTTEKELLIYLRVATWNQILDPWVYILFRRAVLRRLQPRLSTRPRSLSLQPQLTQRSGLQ

CCCCC[C@H](O)/C=C/[C@H]1C(=O)C[C@H](O)[C@@H]1C/C=C\CCCC(=O)O [PGD2, prostaglandin D2]
bronchoconstriction potency relative to PGF2α [1]: 3.5 × | bronchoconstriction potency relative to histamine [1]: 30 × | IC50 (CRTH2; 300-19 CRTH2 transfectants, 2 nM [3H]-PGD2, room temperature): 0.018 µM | Kd (CRTH2; CRTH2 transfectant, read-out: Kd of [3H]-PGD2 binding (Scatchard plot)): 0.0181 µM | Ki (TP receptor): 75 µM
